# Patent US20100092443A1, “NOVEL COMBINATIONS OF NITROGENATED HETEROCYCLIC ANTIBACTERIAL COMPOUNDS WITH OTHER ANTIBACTERIAL COMPOUNDS AND THE USE OF SAME AS DRUGS” (priority 2008, published 2010)
# Where two headings read alike, the source gives them in different places.
# Key:
# [1] = tested on: E. cloacae; experiment: MIC, dilutions in liquid medium, alone and combined with NXL105; type: cell-based; settings: Enterobacter cloacae, AmpC, read-out: MIC
# Method: (§1) In vitro activity, method of dilutions in liquid medium:
# (§2) A series of test 96-well microtiter plates are prepared in which the same quantity of sterile nutritive medium is distributed. […] After 24 h of incubation in a 37° C. oven, growth inhibition is evaluated by transillumination, which makes it possible to determine the minimum inhibitory concentrations (MICS) expressed in μg/ml.
# [2] = tested on: K. pneumoniae; experiment: as above; type: cell-based; settings: Klebsiella pneumoniae, read-out: MIC
# Method: as §1, §2
# [3] = tested on: E. aerogenes; experiment: as above; type: cell-based; settings: Klebsiella aerogenes, 24 h; E. aerogenes EAR2; Case-R + FEP-R; read-out: MIC
# [4] = tested on: C. freundii; experiment: as above; type: cell-based; settings: Citrobacter freundii, read-out: MIC
# [5] = tested on: K. oxytoca; experiment: as above; type: cell-based; settings: Klebsiella oxytoca, read-out: MIC
# [6] = tested on: E. coli; experiment: microbe, parasite or virus in culture; type: cell-based; settings: Escherichia coli
# Method: as §1, §2
# [7] = tested on: P. aeruginosa (391 HT2); experiment: MICs determined on microplates; type: cell-based, Pseudomonas aeruginosa; settings: Pseudomonas aeruginosa; sensitive strain P. aeruginosa 391 HT2
# Method: (§3) The minimum inhibitory concentrations (MICs) of the products to be tested (products alone and combinations) are determined in advance. • For each concentration of product to be tested as well as the control stock, an Erlenmeyer flask containing 18.5 ml Muller-Hinton medium (Ca^++) is prepared. • From an overnight culture in broth or a bacterial suspension of OD (optical density)=1, a 1/100 dilution is prepared. • The sample is cultured with agitation for 2 h at 37° C. • OD is measured: if >0.5, the sample is diluted to 1/10. • Each Erlenmeyer flask is inoculated with 1 ml of the agitated culture or its dilution. The initial inoculum should be 1×10^6 CFU/ml. • The various antibiotic solutions are added at a volume of 0.5 ml and 0.5 ml of medium in the control Erlenmeyer flask. • With a volume of 0.1 ml, the control Erlenmeyer flask is numbered=TO. • The flask is incubated at 37° C. with agitation. • At each sampling point (2, 4, 6, 24, 48 hours), a volume of 0.1 ml is sampled from each Erlenmeyer flask and numbered. • Plates for all the numbered samples are incubated (24 h-48 h) at 37° C.
# Bactericidal activity was evaluated on a sensitive strain of P. aeruginosa (391 HT2)
# [8] = tested on: P. aeruginosa (391 HT2); experiment: MICs in a volume of 10 ml, bactericidal conditions (exponential bacterial growth); type: cell-based, Pseudomonas aeruginosa; settings: Pseudomonas aeruginosa
# Method: as §3
# For the bactericidal tests, MICs are determined in a volume of 10 ml-bactericidal conditions (exponential bacterial growth): […]
structure (smiles),measurement,setting,value
C[C@H]1[C@H](NC(=O)/C(=N\OC(C)(C)C(=O)O)c2csc(N)n2)C(=O)N1S(=O)(=O)O [Aztreonam],MIC,[1]; E. cloacae (no alias),16 µg/mL
same,MIC,[1]; E. cloacae,16 µg/mL
same,MIC,"[2]; 24 h, K. pneumoniae 60, SHV-2 + TEM-2 + PER",16 µg/mL
same,MIC,"[2]; 24 h, K. pneumoniae 157, SHV-5 + TEM-26",16 µg/mL
same,MIC,"[2]; 24 h, K. pneumoniae 236, SHV-5 + TEM-10",16 µg/mL
same,MIC,"[2]; 24 h, K. pneumoniae 253, SHV-2 + TEM-12 + CTX-M-2",16 µg/mL
same,MIC,"[2]; 24 h, K. pneumoniae 427, SHV-1 + TEM-1B + CTX-M-3",4 µg/mL
same,MIC,"[2]; 24 h, K. pneumoniae 441, SHV-1 + TEM-2 + PER",16 µg/mL
same,MIC,"[2]; 24 h, K. pneumoniae 444, SHV-5 + TEM-2 + PER",8 µg/mL
same,MIC,"[2]; 24 h, K. pneumoniae 1734, FOX-3 + TEM-1",8 µg/mL
same,MIC,"[2]; 24 h, K. pneumoniae 9701, CMY-4 + TEM-1",16 µg/mL
same,MIC,"[2]; 24 h, K. pneumoniae Patient 1BHR, VIM-4 + CTX-M-15 = CMY-4 + TEM-1",16 µg/mL
same,MIC,"[2]; 24 h, K. pneumoniae SLK54, ACC-1 + TEM-1",2 µg/mL
same,MIC,"[2]; 24 h, K. pneumoniae TN58467, DHA-1 + SHV-2a + TEM-1",16 µg/mL
same,MIC,"[2]; ATCC700603, K. pneumoniae ATCC 700603, SHV-18",8 µg/mL
same,MIC,"[2]; K. pneumoniae 26, SHV-5",16 µg/mL
same,MIC,"[2]; K. pneumoniae KP04, CTX-M-14",16 µg/mL
same,MIC,"[2]; K. pneumoniae VAKP, KPC-2",16 µg/mL
same,MIC,[3],16 µg/mL
same,MIC,"[4]; 24 h, C. freundii (no alias), AmpC + TEM-1",16 µg/mL
same,MIC,"[4]; C. freundii (no alias, table row r121), AmpC",8 µg/mL
same,MIC,"[4]; C. freundii (no alias, table row r122), AmpC",32 µg/mL
same,MIC,"[4]; C. freundii (no alias, table row r123), AmpC",16 µg/mL
same,MIC,"[4]; C. freundii (no alias, table row r125), AmpC",4 µg/mL
same,MIC,"[5]; K. oxytoca 1431, TEM-129",> 32 µg/mL
same,MIC,"[5]; K. oxytoca 16944, OXY-2, TEM-1",32 µg/mL
same,MIC,"[6]; 24 h, E. coli 2138, KPC-2 + TEM-1",32 µg/mL
same,MIC,"[6]; 24 h, E. coli (no alias), CTX-M-15 + TEM-1 + OXA-1",4 µg/mL
same,MIC,"[6]; 24 h, E. coli IND, VEB-1 + CMY-2",> 32 µg/mL
same,MIC,"[6]; 24 h, E. coli TN06, CTX-M-2 + TEM-1",8 µg/mL
same,MIC,"[6]; 24 h, E. coli TN13, CTX-M-14 + CMY-2 + TEM-1",16 µg/mL
same,MIC,"[6]; 24 h, E. coli Tunisie clone E4, CTX-M-16 + TEM-1",32 µg/mL
same,MIC,"[6]; E. coli (no alias), Cephalosporinase, read-out: MIC",16 µg/mL
same,MIC,"[6]; E. coli (no alias), SHV-4",16 µg/mL
same,MIC,"[6]; E. coli (no alias), TEM-3",8 µg/mL
O=C(O)c1cn(C2CC2)c2cc(N3CCNCC3)c(F)cc2c1=O [Ciprofloxacine],MIC,[7],1 µg/mL
NC[C@H]1O[C@H](O[C@H]2[C@H](O)[C@@H](O[C@H]3O[C@H](CO)[C@@H](O)[C@H](N)[C@H]3O)[C@H](N)C[C@@H]2N)[C@H](N)C[C@@H]1O [Tobramycin],MIC,[8],1 µg/mL
same,MIC,[7],1 µg/mL
